In ChEMBL document CHEMBL5108010, “Structure-activity relationship studies on divalent naphthalene diimide G quadruplex ligands with anticancer and antiparasitic activity” (Bioorg Med Chem, 2022):

Tests used:
[1] = Cytotoxicity against human MRC5 cells assessed as inhibition of cell proliferation incubated for 72 hrs by alamar blue assay; format: toxicity, cell-based; conditions: human, MRC5 cells
HeLa = assay: Cytotoxicity against human HeLa cells assessed as inhibition of cell proliferation incubated for 72 hrs by alamar blue assay; format: functional, cell-based; conditions: Homo sapiens, HeLa, 72 h
Trypanosoma brucei = assay: Antitrypanosomal activity against Trypanosoma brucei bloodstream form assessed as inhibition of parasite growth incubated for 72 hrs by alamar blue assay; format: functional, organism-based; conditions: Trypanosoma brucei, 72 h
Leishmania major = assay: Antileishmanial activity against Leishmania major (MHOM/IL/80/Friedlin) promastigotes assessed as inhibition of parasite growth incubated for 72 hrs by MTT assay; format: functional, organism-based; conditions: Leishmania major, MHOM/IL/80/Friedlin, 72 h
[2] = Selectivity index, ratio of IC50 for cytotoxicity against human MRC5 cells to IC50 for cytotoxicity against human HeLa cells; format: toxicity, cell-based; conditions: MRC5 cells versus HeLa cells, read-out: Ratio IC50
[3] = Selectivity index, ratio of IC50 for cytotoxicity against human MRC5 cells to IC50 for antitrypanosomal activity against Trypanosoma brucei bloodstream form; format: toxicity, cell-based; conditions: MRC5 cells versus Trypanosoma brucei bloodstream form, read-out: Ratio IC50
[4] = Selectivity index, ratio of IC50 for cytotoxicity against human MRC5 cells to IC50 for antileishmanial activity against Leishmania major (MHOM/IL/80/Friedlin) promastigotes; format: toxicity, cell-based; conditions: read-out: Ratio IC50
Quadruplex DNA [5] = assay: Binding affinity to G-quadruplex telomeric DNA F21T (5'-duplex GGG TTAGGG TTAGGG TTAGGG-3') (unknown origin) assessed as stabilization by measuring change in melting temperature at 10 uM in potassium buffer by FRET melting assay; format: nucleic-acid assay
Quadruplex DNA [6] = assay: Binding affinity to G-quadruplex telomeric DNA F21T (5'-duplex GGG TTAGGG TTAGGG TTAGGG-3') (unknown origin) assessed as stabilization by measuring change in melting temperature at 10 uM in sodium buffer by FRET melting assay; format: nucleic-acid assay
Quadruplex DNA [7] = assay: Binding affinity to G-quadruplex telomeric DNA FMycT (5'-duplex GGG TTAGGG TTAGGG TTAGGG-3') (unknown origin) assessed as stabilization by measuring change in melting temperature at 10 uM in potassium buffer by FRET melting assay; format: nucleic-acid assay
Quadruplex DNA [8] = assay: Binding affinity to Trypanosoma brucei G-quadruplex telomeric DNA FEBR1T (5'-duplex GGG TTAGGG TTAGGG TTAGGG-3') assessed as stabilization by measuring change in melting temperature at 10 uM in potassium buffer by FRET melting assay; format: nucleic-acid assay
[9] = Binding affinity to hairpin duplex DNA F10T (unknown origin) assessed as stabilization by measuring change in melting temperature at 10 uM in potassium buffer by FRET melting assay
[10] = Drug uptake in human MRC5 cells incubated at 4 degreeC for 30 mins by flow cytometry analysis; format: ADME, cell-based; conditions: mrc5, 0.5 h
[11] = Drug uptake in human MRC5 cells incubated at 4 degreeC for 2 hrs by flow cytometry analysis; format: ADME, cell-based; conditions: mrc5, 2 h
[12] = Drug uptake in human MRC5 cells incubated at 37 degreeC for 30 mins by flow cytometry analysis; format: ADME, cell-based; conditions: mrc5, 0.5 h
[13] = Drug uptake in human MRC5 cells incubated at 37 degreeC for 2 hrs by flow cytometry analysis; format: ADME, cell-based; conditions: mrc5, 2 h
[14] = Drug uptake in Trypanosoma brucei incubated at 4 degreeC for 2 hrs by flow cytometry analysis; format: ADME
[15] = Drug uptake in Trypanosoma brucei incubated at 4 degreeC for 16 hrs by flow cytometry analysis; format: ADME
[16] = Drug uptake in Trypanosoma brucei incubated at 37 degreeC for 2 hrs by flow cytometry analysis; format: ADME
[17] = Drug uptake in Trypanosoma brucei incubated at 37 degreeC for 16 hrs by flow cytometry analysis; format: ADME
[18] = Drug uptake in human MRC5 cells assessed as drug internalization at 5 uM incubated for 30 mins by DAPI staining based confocal fluorescence microscopic analysis; format: ADME, cell-based; conditions: mrc5, 0.5 h
[19] = Drug uptake in human MRC5 cells assessed as drug internalization at 5 uM incubated for 120 mins by DAPI staining based confocal fluorescence microscopic analysis; format: ADME, cell-based; conditions: mrc5, 2 h
[20] = Drug uptake in Trypanosoma brucei assessed as drug internalization at 5 uM incubated for 2 hrs by DAPI staining based confocal fluorescence microscopic analysis; format: ADME
[21] = Drug uptake in Trypanosoma brucei assessed as drug internalization at 5 uM incubated for 6 hrs by DAPI staining based confocal fluorescence microscopic analysis; format: ADME
[22] = Drug internalization in nuclei of human MRC5 cells at 5 uM incubated for 2 hrs by DAPI staining based confocal fluorescence microscopic analysis; format: ADME, cell-based; conditions: mrc5, 2 h
[23] = Drug internalization in nuclei of Trypanosoma brucei at 5 uM incubated for 6 hrs by DAPI staining based confocal fluorescence microscopic analysis; format: ADME

IC50 (Trypanosoma brucei): 0.75 µM | ΔTm (Quadruplex DNA [5]): 1.4 °C | ΔTm (Quadruplex DNA [6]): 1.3 °C | ΔTm (Quadruplex DNA [7]): 1.8 °C | ΔTm (Quadruplex DNA [8]): 0.9 °C | ΔTm [9]: -0.1 °C | Drug uptake [10]: Active | Drug uptake [11]: Active | Drug uptake [12]: Active | Drug uptake [13]: Active | Drug uptake [14]: Active | Drug uptake [15]: Active | Drug uptake [16]: Active | Drug uptake [17]: Active | Drug uptake [18]: Active | Drug uptake [19]: Active | Drug uptake [20]: Active | Drug uptake [21]: Active | Drug uptake [22]: Active | Drug uptake [23]: Active
Structure (SMILES): CN1CCN(c2ccc(N3C(=O)c4ccc5c6c(ccc(c46)C3=O)C(=O)N(c3ccc(N4CCN(C)CC4)cc3)C5=O)cc2)CC1
IC50 at 72 h [1]: 22.3 µM | IC50 (HeLa): 2.29 µM | IC50 (Leishmania major): 0.93 µM | selectivity ratio [2]: 9.72 | selectivity ratio [3]: 29.5 | selectivity ratio [4]: 23.8
